Columns and labels:
[1] = mn = molality of the nth substance listed, in mol/kg; details: 100 kPa, Liquid; for speed of sound: Single path-length method; for mass density: Vibrating tube method
[2] = 100 kPa, Liquid, Single path-length method

Cn1c(=O)c2c(ncn2C)n(C)c1=O [caffeine] + O
[1]
Details | mass density, m1 = 0.005 [kg/m3] | mass density, m1 = 0.01 [kg/m3] | mass density, m1 = 0.02 [kg/m3] | mass density, m1 = 0.04 [kg/m3] | mass density, m1 = 0.06 [kg/m3] | speed of sound, m1 = 0.005 [m/s] | speed of sound, m1 = 0.01 [m/s] | speed of sound, m1 = 0.02 [m/s] | speed of sound, m1 = 0.04 [m/s] | speed of sound, m1 = 0.06 [m/s]
293.15 K | 998.731 | 998.986 | 999.492 | 1000.68 | 1001.78 | 1483 | 1483.5 | 1484 | 1485.1 | 1486.2
298.15 K | 997.275 | 997.549 | 998.082 | 999.091 | 1000.02 | 1497.2 | 1497.6 | 1498 | 1499 | 1500.1
303.15 K | 996.169 | 996.422 | 996.912 | 997.986 | 999.147 | 1509.5 | 1509.8 | 1510.3 | 1511.2 | 1512.1
308.15 K | 994.279 | 994.556 | 995.092 | 996.095 | 997.015 | 1520.1 | 1520.4 | 1520.8 | 1521.6 | 1522.4
313.15 K | 992.732 | 992.974 | 993.452 | 994.51 | 995.632 | 1529.1 | 1529.4 | 1529.8 | 1530.4 | 1531.2
318.15 K | 990.833 | 990.981 | 991.327 | 992.156 | 992.958 | 1536.7 | 1537 | 1537.2 | 1537.8 | 1538.5

O [water]
[2]
Details | speed of sound [m/s]
313.15 K | 1528.9
318.15 K | 1536.5

Reference: the NIST ThermoML archive (doi:10.1021/acs.jced.9b00327)
